Assay results as given in US6624149B2, “Method for nucleic acid transfection of cells” (Genteric, Inc., priority 2000, dated 2003).

System: rat salivary gland (submandibular gland)
Test: Intraductal transfection of rat salivary gland with pCMV.FOX.Luc-2, luciferase assay
Type: in vivo
Procedure: Nucleic acid/transition metal enhancer mixtures were prepared by sequentially adding deionized water or a buffered solution, DNA, and a desired transition metal enhancer to a polystyrene tube with mixing. “Free” (i.e., “Naked”) DNA controls were prepared by sequentially adding DNA to water or a buffered solution
Male Sprague-Dawley rats (260-280 g) were fasted the night prior to treatment. After administration of the anesthesia (see Section 6.1.3), both right and left salivary gland ducts (specifically, Wharton's duct) were cannulated with fine polyurethane tubing (i.d. 0.005″) and cemented into the desired location. Atropine was then administered subcutaneously (0.5 mg/kg) and, after eight minutes, 50 μl of the nucleic acid/transition metal enhancer mixture was injected, infused, instilled or administered at the ductal orifice or directly into the duct at any point along its length. See Goldfine, Nature Biotechnology 15:1378, 1997.
Regardless of whether a liposome/transition metal/nucleic acid mixture or a nucleic acid/transition metal enhancer mixture was delivered, the tubing and mixture was kept in place for ten additional minutes after application of the mixture prior to removal. At 48 hours post atropine administration, the rats were anesthetized by intraperitoneal injection of pentobarbital (50 mg/kg). The right and left submandibular glands were surgically removed, and the tissues were assayed for any observable reporter gene (luciferase of hGH) expression using the methods described below.
The presently claimed invention describes a new method using a combination of a transition metal enhancer and a nucleic acid of interest for gene delivery. The present invention provides a method which may enhance gene expression by improving the efficiency of gene delivery. This change in gene expression can be quantitated using various assays, such as the luciferase assay. de Wet et al., Molec. Cell Biol. 7:725, 1987. In various experiments described herein, the right and left submandibular glands were removed from the male Sprague-Dawley rats at 48 hours post administration of the pCMV.FOX.Luc-2 containing solution. In additional experiments other organs, such as the rat lungs, were used.
In experiments in which submandibular glands were tested, the amount of luciferase present in the right and left submandibular gland of each male Sprague-Dawley rat was measured independently and treated as separate, individual experiments (e.g., trials) because the amount of luciferase expressed by one submandibular gland is independent of the amount of luciferase expressed in the other submandibular gland. Therefore, each submandibular gland was independently lysed in lysis buffer (1.0 ml buffer per 0.1 g tissue) to create a lysis homogenate. The lysis buffer contained 100 mM K2PO4 pH 7.0, 1 mM dithiothreitol, and 1% Triton X-100. A 100 μl aliquot of lysis homogenate from each submandibular gland was analyzed for luciferase activity (de Wet et al., Molec. Cell Biol. 7:725, 1987) using a Monolight 2010 luminometer (Analytical Luminescence Laboratories). Accordingly, luciferase light emissions from each aliquot of the lysis homogenate were measured over a ten second period.
Activity was expressed as relative light units, values collectively representing the assay conditions, luciferase concentration, luminometer photomultiplier tube sensitivity and background. Using well known techniques, the luciferase light units may be converted, for example, to picograms of luciferase protein. See, e.g., Felgner et al., U.S. Pat. No. 5,580,899 at Example 13. All experiments were performed in duplicate. In experiments using submandibular glands, data from each individual submandibular gland lysis homogenate is reported as a single trial.

[Cl][Co][Cl] [CoCl2, cobalt chloride]
Average relative light units (Table 4, CoCl2 0.3 mM, 32 μg DNA in 50 μl, 48 hours): 37219 relative light units
Average relative light units (Table 4, CoCl2 0.9 mM, 32 μg DNA in 50 μl, 48 hours): 44926 relative light units

O=S(=O)([O-])[O-].[Zn+2] [ZnSO4, zinc sulfate]
Average relative light units (Table 6, zinc 3.6 mM, 128 μg DNA in 50 μl, 48 hours): 355676 relative light units

[Cl][Ni][Cl] [Ni, nickel chloride]
Average relative light units (Table 2, metal chloride 0.3 mM, 32 μg DNA in 50 μl, 48 hours, eight glands): 18391 relative light units
Average relative light units (Table 2, metal chloride 0.9 mM, 32 μg DNA in 50 μl, 48 hours, eight glands): 65121 relative light units

[Cl][Cu] [Cu, cuprous chloride]
Average relative light units (Table 3, metal chloride 0.6 mM, 32 μg DNA in 50 μl, Tris-HCl/EDTA, 48 hours, eight glands): 17667 relative light units
Average relative light units (Table 3, metal chloride 0.9 mM, 32 μg DNA in 50 μl, Tris-HCl/EDTA, 48 hours, eight glands): 42204 relative light units
Average relative light units (Table 3, metal chloride 1.2 mM, 32 μg DNA in 50 μl, Tris-HCl/EDTA, 48 hours, eight glands): 17194 relative light units

CC(=O)[O-].CC(=O)[O-].[Zn+2] [Zn(CH3CO2)2, zinc acetate]
Average relative light units (rat, in vivo): 309965 relative light units
